Reference: publication PMC6190829 (Journal of medicinal chemistry, 2018)
Several values for one entry are separate records, joined by “and”; a condition that tells them apart may be missing. Equal values may be shown once. Entries after “also recorded” stand apart in the source; their conditions may differ.

Key:
HaCaT cells [1] = experiment: Immunoblot of NRF2, NQO1, GCLM protein levels; type: cell-based, human; settings: 10 μM
[2] = Kinetic aqueous solubility in buffer pH 7.4; type: physicochemical
[3] = Microsomal stability, mouse liver microsomes; type: in vitro ADME; settings: 1 μM, 20 min, NADPH
Solubility in DMSO = type: physicochemical
[4] = test system: Salmonella typhimurium (TA98, TA100, TA1535, TA1537); experiment: Mini-Ames assay, revertant colonies per strain; settings: for Dose response of revertant increase: 6a: TA98 and TA100
[5] = test system: Salmonella typhimurium (TA98, TA100, TA1535, TA1537) and Escherichia coli (WP2 uvrA (pKM101)); experiment: Mini-Ames assay, cytotoxicity and overall judgement over all strains; settings: for Cytotoxicity in Mini-Ames assay: 1.5-1000 μg/well, any dose level; for Mutagenicity judgement: Mini-Ames, with and without S9
HaCaT cells [6] = experiment: NRF2 target gene mRNA expression; type: cell-based, human; settings: 10 μM
HaCaT cells [7] = experiment: Nuclear accumulation of NRF2; type: cell-based, human; settings: 10 μM, 6 and 24 hours, vs DMSO control
Kelch domain of KEAP1 [8] = target: T1, Kelch domain of KEAP1 (Homo sapiens, UniProt Q14145); experiment: Surface plasmon resonance assay
T1 sequence (Q14145 321-609 limits assumed): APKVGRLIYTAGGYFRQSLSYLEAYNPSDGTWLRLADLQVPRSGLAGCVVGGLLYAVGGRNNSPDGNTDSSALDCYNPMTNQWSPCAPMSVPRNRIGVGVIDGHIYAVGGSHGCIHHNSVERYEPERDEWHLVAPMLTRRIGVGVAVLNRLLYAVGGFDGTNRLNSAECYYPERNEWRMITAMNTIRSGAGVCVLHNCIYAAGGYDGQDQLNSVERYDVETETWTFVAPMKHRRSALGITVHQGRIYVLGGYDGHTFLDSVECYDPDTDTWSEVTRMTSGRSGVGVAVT

Kelch domain of KEAP1 [9] = target: T1, Kelch domain of KEAP1; experiment: Fluorescence anisotropy; settings: IC50 (nM) (95% CI), fluorescent NRF2 peptide / KEAP1 Kelch domain
[10] = cited from earlier work
[11] = with S9 mix, higher dose levels, vs vehicle control

For `CC1(C)CC[C@]2(C(=O)n3ccnc3)CC[C@]3(C)[C@H](C(=O)C=C4[C@@]5(C)C=C(C#N)C(=O)C(C)(C)[C@@H]5CC[C@]43C)[C@@H]2C1` [CDDO-Im, reference compound], the GCLM protein level (HaCaT cells [1]; 24 h, vs vehicle) was “significantly higher”, the NQO1 protein level (HaCaT cells [1]; 24 h, vs vehicle) was “higher” and the NRF2 protein level (HaCaT cells [1]; 24 h, vs vehicle) was “higher”.
For `COc1ccc(S(=O)(=O)Nc2ccc(NS(=O)(=O)c3ccc(OC)cc3)c3ccccc23)cc1` [Compound 5], the “Aqueous solubility” value [2] was “modest aqueous solubilities”.
For `COc1ccc(S(=O)(=O)N(CC(=O)O)c2ccc(N(CC(=O)O)S(=O)(=O)c3ccc(OC)cc3)c3ccccc23)cc1` [Compound 6a], the “Compound remaining after incubation, mouse liver microsomes” value [3] was “stable”, the solubility (Solubility in DMSO) was no more than 50 mg/mL and the “Dose response of revertant increase” value [4] was “Dose response was also observed”. For the same compound, the “Increase in revertants, TA100” value [4, 11] was greater than 2 fold, the “Increase in revertants, TA1535” value [4, 11] was greater than 3 fold and the “Cytotoxicity in Mini-Ames assay” value [5] was “No cytotoxicity”. The Mutagenicity judgement [5] was “positive for mutagenicity”.
For `COc1ccc(S(=O)(=O)N(CC(N)=O)c2ccc(N(CC(N)=O)S(=O)(=O)c3ccc(OC)cc3)c3ccccc23)cc1` [Compound 6b], the “Aqueous solubility” value [2] was “poor solubility”, the NQO1 protein level (HaCaT cells [1]; 6 h, vs DMSO) was “modest increase” and the NRF2 protein level (HaCaT cells [1]; 6 h, vs DMSO) was “modest increase”. For the same compound, the GCLM protein level (HaCaT cells [1]; 24 h, vs vehicle) was “significantly higher”, the NQO1 protein level (HaCaT cells [1]; 24 h, vs vehicle) was “Increased” and the NRF2 protein level (HaCaT cells [1]; 24 h, vs vehicle) was “Increased”.
For `COc1ccc(S(=O)(=O)N(CC(=O)O)c2cnc(N(CC(=O)O)S(=O)(=O)c3ccc(OC)cc3)c3ccccc23)cc1` [Compound 17, 2,2’-(isoquinoline-1,4-diylbis(((4-methoxyphenyl)sulfonyl)azanediyl))diacetic acid], the GCLM protein level (HaCaT cells [1]; 24 h, vs vehicle) was “significantly higher”, the NQO1 protein level (HaCaT cells [1]; 24 h, vs vehicle) was “Increased” and the NRF2 protein level (HaCaT cells [1]; 24 h, vs vehicle) was “Increased”. For the same compound, the “SOD mRNA expression (not an NRF2 target gene)” value (HaCaT cells [6]) was “neither isoquinoline 17 nor quinoline 23 produced a significant increase”, the “GCLC mRNA expression” value (HaCaT cells [6]; 6 hours) was “significant increase” and the “GCLM mRNA expression” value (HaCaT cells [6]; 6 hours) was “significant increase”. The “HMOX1 mRNA expression” value (HaCaT cells [6]; 6 hours) was “significant increase”, the “NQO1 mRNA expression” value (HaCaT cells [6]; 24 hours) was “increase” and the “Dose response of revertant increase” value [4] was “No dose response was observed”. For the same compound, the “Cytotoxicity in Mini-Ames assay” value [5] was “No cytotoxicity” and the Mutagenicity judgement [5] was “better mutagenic profile than naphthalene 6a”.
With `COc1ccc(S(=O)(=O)N(CC(=O)O)c2ccc(N(CC(=O)O)S(=O)(=O)c3ccc(OC)cc3)c3ncccc23)cc1` [Compound 23] the NQO1 protein level (HaCaT cells [1]; 6 h, vs DMSO) was “modest increase”, the NRF2 protein level (HaCaT cells [1]; 6 h, vs DMSO) was “modest increase” and the GCLM protein level (HaCaT cells [1]; 24 h, vs vehicle) was “modestly increased”. The NQO1 protein level (HaCaT cells [1]; 24 h, vs vehicle) was “no effect”, the NRF2 protein level (HaCaT cells [1]; 24 h, vs vehicle) was “no effect” and the “SOD mRNA expression (not an NRF2 target gene)” value (HaCaT cells [6]) was “neither isoquinoline 17 nor quinoline 23 produced a significant increase”. For the same compound, the “GCLC mRNA expression” value (HaCaT cells [6]; 6 and 24 hours) was “small increase”, the “GCLM mRNA expression” value (HaCaT cells [6]; 6 and 24 hours) was “small increase” and the “HMOX1 mRNA expression” value (HaCaT cells [6]; 6 and 24 hours) was “no increase”. For the same compound, the “NQO1 mRNA expression” value (HaCaT cells [6]; 6 and 24 hours) was “small increase” and the “NRF2 accumulation in the nucleus” value (HaCaT cells [7]) was “small significant increase; also recorded: modest increase”.
For `COc1ccc(S(=O)(=O)N(CC(=O)O)c2ccc(N(CC(=O)O)S(=O)(=O)c3ccc(OC)cc3)c3[nH]ccc23)cc1` [Compound 29, 2,2’-((1H-indole-4,7-diyl)bis(((4-methoxyphenyl)sulfonyl)azanediyl))diacetic acid], the “Stability of the compound” value (Compound stability) was “unstable”.
For `COc1ccc(S(=O)(=O)Nc2nnc(N(CC(=O)O)S(=O)(=O)c3ccc(OC)cc3)c3ccccc23)cc1` [Compound 34, N-(4-((4-methoxyphenyl)sulfonamido)phthalazin-1-yl)-N-((4-methoxyphenyl)sulfonyl)glycine], the “Compound remaining after incubation, mouse liver microsomes” value [3] was “comparable to the other compounds”, the NQO1 protein level (HaCaT cells [1]; 6 h, vs DMSO) was “no increase” and the NRF2 protein level (HaCaT cells [1]; 6 h, vs DMSO) was “no increase”. The Kd (Kelch domain of KEAP1 [8]) was greater than 10000 nM and the IC50 (Kelch domain of KEAP1 [9]) was 1000 nM and 1100 nM.
With `COc1ccc(S(=O)(=O)N(CC(=O)O)c2cc(-c3ccccc3)cc(N(CC(=O)O)S(=O)(=O)c3ccc(OC)cc3)c2)cc1` [Compound 46, 2,2’-(1,1’-biphenyl]-3,5-diylbis(((4-methoxyphenyl)sulfonyl)azanediyl) diacetic acid] the IC50 (Kelch domain of KEAP1 [9]) was greater than 25000 nM.
In the case of `Cc1cc(C)c(C)c(S(=O)(=O)Nc2ccc(N3CC[C@H](C(=O)O)C3)c3ccccc23)c1C` [RA-839], the In vivo activity ([10]; ref Winkel et al.[31]) is listed as “active in vivo only if Phase 1 metabolism were inhibited” and the In vivo metabolism ([10]; ref [31]) is listed as “metabolized quickly in vivo”.
